Eleven molecules from patent publication US20240261417A1, “SOS1 DEGRADING AGENT AND PREPARATION METHOD THEREFOR AND APPLICATION THEREOF” (SHANGHAI LEADINGTAC PHARMACEUTICAL CO. LTD., priority 2021, published 2024) can be followed below.

Like-named read-outs stand apart in the source and are kept apart here.

The test deals with T1, SOS1 protein (Homo sapiens, UniProt Q07889).
T1 sequence (Q07889 1-1333): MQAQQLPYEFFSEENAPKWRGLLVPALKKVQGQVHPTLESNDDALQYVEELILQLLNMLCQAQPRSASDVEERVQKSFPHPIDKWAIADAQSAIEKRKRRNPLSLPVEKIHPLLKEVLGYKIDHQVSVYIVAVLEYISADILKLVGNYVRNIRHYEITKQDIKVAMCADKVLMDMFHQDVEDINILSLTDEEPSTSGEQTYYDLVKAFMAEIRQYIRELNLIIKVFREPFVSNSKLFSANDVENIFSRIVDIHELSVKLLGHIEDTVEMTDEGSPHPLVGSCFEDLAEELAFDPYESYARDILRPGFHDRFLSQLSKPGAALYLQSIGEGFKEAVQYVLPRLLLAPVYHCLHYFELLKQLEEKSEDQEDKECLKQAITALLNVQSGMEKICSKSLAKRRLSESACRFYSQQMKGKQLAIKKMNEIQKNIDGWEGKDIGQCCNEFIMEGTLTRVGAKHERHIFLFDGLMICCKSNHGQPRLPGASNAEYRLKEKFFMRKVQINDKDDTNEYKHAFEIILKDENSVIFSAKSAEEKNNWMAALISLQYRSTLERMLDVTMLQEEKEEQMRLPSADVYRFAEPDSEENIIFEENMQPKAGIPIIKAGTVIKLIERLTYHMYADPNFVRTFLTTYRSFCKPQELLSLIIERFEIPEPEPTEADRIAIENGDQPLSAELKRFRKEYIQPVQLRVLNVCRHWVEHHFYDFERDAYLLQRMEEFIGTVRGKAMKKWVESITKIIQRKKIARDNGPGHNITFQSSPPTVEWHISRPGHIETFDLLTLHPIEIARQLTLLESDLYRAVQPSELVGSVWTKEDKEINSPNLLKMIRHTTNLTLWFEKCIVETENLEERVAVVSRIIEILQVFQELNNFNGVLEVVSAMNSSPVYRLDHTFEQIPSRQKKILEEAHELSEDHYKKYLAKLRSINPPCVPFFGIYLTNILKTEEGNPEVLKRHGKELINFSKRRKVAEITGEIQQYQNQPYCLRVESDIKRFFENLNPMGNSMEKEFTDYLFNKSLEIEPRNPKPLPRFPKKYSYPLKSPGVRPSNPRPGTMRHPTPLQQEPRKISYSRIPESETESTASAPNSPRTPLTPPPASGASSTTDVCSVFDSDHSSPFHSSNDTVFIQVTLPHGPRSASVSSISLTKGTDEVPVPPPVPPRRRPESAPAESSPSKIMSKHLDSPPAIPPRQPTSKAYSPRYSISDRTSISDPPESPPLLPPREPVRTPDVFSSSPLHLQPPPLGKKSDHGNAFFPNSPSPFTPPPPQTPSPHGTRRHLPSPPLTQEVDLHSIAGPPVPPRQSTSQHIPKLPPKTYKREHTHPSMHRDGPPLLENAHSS
Put plainly: SOS1 degradation assay (Western blot), NCI-H358 cells. As to conditions: for DC50: read-out: NCI-H358 (G12C) DC50. In kind it is cell-based. Also noted: The degradation of SOS1 by the compounds was investigated on KRAS G12C mutant human non-small cell lung cancer cells NCI-H358; host or cells: NCI-H358 (human cancer cell lines). The gist of the method:
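SOS1 degradation was assessed by densitometry of Western blots, relative to untreated controls, after 24 h compound exposure (0.03–3000 nM final, 37 °C, 5% CO2) of cells seeded at 5×10^5/well. Log concentration–response fitting gave DC50 and Dmax.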

[1] abbreviates: SOS1 degradation, NCI-H358 cells, 24 h, Western blot.
The mark [2] stands for this setting: SOS1 degradation, NCI-H358 cells, 24 h, Western blot, read-out: NCI-H358 (G12C) Dmax.

As for `COc1cc2nc(C)nc(N[C@H](C)c3cc(N)cc(C(F)(F)F)c3)c2cc1[C@H]1CC[C@H](C(=O)N2CCC(CCCN(C)C3CCN(Cc4ccc(Cl)c(N5CCC(=O)NC5=O)c4)CC3)CC2)CC1` [Example 38, 1-(5-((4-((3-(1-((1R,4R)-4-(4-(((R)-1-(3-amino-5-(trifluoromethyl)phenyl)ethyl)amino)-7-methoxy-2-methylquinazolin-6-yl)cyclohexane-1-carbonyl)piperidin-4-yl)propyl)(methyl)amino)piperidin-1-yl)methyl)-2-chlorophenyl)dihydropyrimidine-2,4(1H,3H)-dione], under setting [1], the DC50 (usually the concentration at which degradation of the target reaches its halfway point) is 1000 to 10000 nM. Besides, under setting [2], the Dmax (commonly the largest share of the target that was removed) is < 30%. For the molecule `COc1cc2nc(C)nc(N[C@H](C)c3cc(N)cc(C(F)(F)F)c3)c2cc1[C@H]1CC[C@H](C(=O)N2CCN(CC3CCN(C(=O)c4ccc(Cl)c(N5CCC(=O)NC5=O)c4)CC3)CC2)CC1` [Example 13, 1-(5-(4-((4-((1R,4R)-4-(4-(((R)-1-(3-amino-5-(trifluoromethyl)phenyl)ethyl)amino)-7-methoxy-2-methylquinazolin-6-yl)cyclohexane-1-carbonyl)piperazin-1-yl)methyl)piperidine-1-carbonyl)-2-chlorophenyl)dihydropyrimidine-2,4(1H,3H)-dione], the DC50 under setting [1] was 1000 to 10000 nM. For the same molecule, the Dmax under setting [2] lay in the range of 30 to 50%. `CNCc1ccccc1-c1csc([C@@H](C)Nc2nc(C)nc3cc(OC)c([C@H]4CC[C@H](C(=O)N5CCN(CC6CCC7(CC6)CCN(C(=O)c6ccc(F)c(N8CCC(=O)NC8=O)c6)CC7)CC5)CC4)cc23)c1` [Example 74, 1-(2-fluoro-5-(9-((4-((1R,4R)-4-(7-methoxy-2-methyl-4-(((R)-1-(4-(2-((methylamino)methyl)phenyl)thien-2-yl)ethyl)amino)quinazolin-6-yl)cyclohexane-1-carbonyl)piperazin-1-yl)methyl)-3-azaspiro[5.5]undecane-3-carbonyl)phenyl)dihydropyrimidine-2,4(1H,3H)-dione]: the DC50 under setting [1] is < 50 nM. For the same molecule, the maximal degradation (Dmax) under setting [2] was 80 to 100%.

Regarding `COc1cc2nc(C)nc(N[C@H](C)c3cc(N)cc(C(F)(F)F)c3)c2cc1OC1CCN(C(=O)C2CCN(CC3CCC4(CC3)CCN(C(=O)c3ccc(Cl)c(N5CCC(=O)NC5=O)c3)CC4)CC2)CC1` [Example 5, (R)-1-(5-(9-((4-(4-((4-((1-(3-amino-5-(trifluoromethyl)phenyl)ethyl)amino)-7-methoxy-2-methylquinazolin-6-yl)oxy)piperidine-1-carbonyl)piperidin-1-yl)methyl)-3-azaspiro[5.5]undecane-3-carbonyl)-2-chlorophenyl)dihydropyrimidine-2,4(1H,3H)-dione], under setting [1], the DC50 fell in the range of 50 to 100 nM. Besides, the Dmax under setting [2] is 80 to 100%. Consider `[2H]C([2H])(OCC1CCN(C(=O)c2ccc(Cl)c(N3CCC(=O)NC3=O)c2)CC1)C1CCN(C(=O)[C@H]2CC[C@H](c3cc4c(N[C@H](C)c5cc(N)cc(C(F)(F)F)c5)nc(C)nc4cc3OC)CC2)CC1` [Example 76, 1-(5-(4-(((1-((1R,4R)-4-(4-(((R)-1-(3-amino-5-(trifluoromethyl)phenyl)ethyl)amino)-7-methoxy-2-methylquinazolin-6-yl)cyclohexane-1-carbonyl)piperidin-4-yl)methoxy-d2)methyl)piperidine-1-carbonyl)-2-chlorophenyl)dihydropyrimidine-2,4(1H,3H)-dione], for which, under setting [1], the “NCI-H358 (G12C) Dmax” value is “B (when 50≤Dmax (%)<80, the level was B)”. With `COc1cc2nc(C)nc(N[C@H](C)c3cc(N)cc(C(F)(F)F)c3)c2cc1[C@H]1CC[C@H](C(=O)N2CCN(CCCC3CCN(C(=O)c4ccc(Cl)c(N5CCC(=O)NC5=O)c4)CC3)CC2)CC1` [Example 11, 1-(5-(4-(3-(4-((1R,4R)-4-(4-(((R)-1-(3-amino-5-(trifluoromethyl)phenyl)ethyl)amino)-7-methoxy-2-methylquinazolin-6-yl)cyclohexane-1-carbonyl)piperazin-1-yl)propyl)piperidine-1-carbonyl)-2-chlorophenyl)dihydropyrimidine-2,4(1H,3H)-dione], under setting [1], the DC50 lay in the range of 1000 to 10000 nM. Besides, the Dmax under setting [2] lay in the range of 30 to 50%.

Regarding `COc1cc2nc(C)nc(N[C@H](C)c3cc(N)cc(C(F)(F)F)c3)c2cc1C1CCC(C(=O)N2CCC(CCOCC3CCN(C(=O)c4ccc5c(c4)C(=O)N(C4CCC(=O)NC4=O)C5=O)CC3)CC2)CC1` (stereo partly drawn) [Example 39, 5-(4-((2-(1-((1S,4S)-4-(4-(((R)-1-(3-amino-5-(trifluoromethyl)phenyl)ethyl)amino)-7-methoxy-2-methylquinazolin-6-yl)cyclohexane-1-carbonyl)piperidin-4-yl)ethoxy)methyl)piperidine-1-carbonyl)-2-(2,6-dioxopiperidin-3-yl)isoindoline-1,3-dione], the DC50 under setting [1] is < 50 nM. The Dmax under setting [2] is 80 to 100%. For `COc1cc2nc(C)nc(N[C@H](C)c3cc(N)cc(C(F)(F)F)c3)c2cc1[C@H]1CC[C@H](C(=O)N2CCC(CN3CCC4(CC3)CCN(C(=O)c3ccc(Cl)c(N5CCC(=O)NC5=O)c3)CC4)CC2)CC1` [Example 7, 1-(5-(9-((1-((1R,4R)-4-(4-(((R)-1-(3-amino-5-(trifluoromethyl)phenyl)ethyl)amino)-7-methoxy-2-methylquinazolin-6-yl)cyclohexane-1-carbonyl)piperidin-4-yl)methyl)-3,9-diazaspiro[5.5]undecane-3-carbonyl)-2-chlorophenyl)dihydropyrimidine-2,4(1H,3H)-dione], the DC50 under setting [1] lay within 1000 to 10000 nM. In addition, the Dmax under setting [2] lay in the range of 30 to 50%. For `COc1cc2nc(C)nc(N[C@H](C)c3cc(NC(C)C)cc(C(F)(F)F)c3)c2cc1[C@H]1CC[C@H](C(=O)N2CCN(CC3CCC4(CC3)CCN(C(=O)c3ccc(Cl)c(N5CCC(=O)NC5=O)c3)CC4)CC2)CC1` [Example 18, 1-(2-chloro-5-(9-((4-((1R,4R)-4-(4-(((R)-1-(3-(isopropylamino)-5-(trifluoromethyl)phenyl)ethyl)amino)-7-methoxy-2-methylquinazolin-6-yl)cyclohexane-1-carbonyl)piperazin-1-yl)methyl)-3-azaspiro[5.5]undecane-3-carbonyl)phenyl)dihydropyrimidine-2,4(1H,3H)-dione], where the note is “NCI-H358, read-out: NCI-H358 (G12C) Dmax”, the Dmax is < 30%. In addition, under setting [1], the DC50 lay in the range of 1000 to 10000 nM.

Take `COc1cc2nc(C)nc(N[C@H](C)c3cc(N)cc(C(F)(F)F)c3)c2cc1[C@H]1CC[C@H](C(=O)N2CCN(CCC3CCN(C(=O)c4ccc(Cl)c(N5CCC(=O)NC5=O)c4)CC3)CC2)CC1` [Example 12, 1-(5-(4-(2-(4-((1R,4R)-4-(4-(((R)-1-(3-amino-5-(trifluoromethyl)phenyl)ethyl)amino)-7-methoxy-2-methylquinazolin-6-yl)cyclohexane-1-carbonyl)piperazin-1-yl)ethyl)piperidine-1-carbonyl)-2-chlorophenyl)dihydropyrimidine-2,4(1H,3H)-dione]: the DC50 under setting [1] lay in the range of 1000 to 10000 nM. For the same molecule, the greatest degradation seen (Dmax) under setting [2] lay in the range of 30 to 50%. Take `COc1cc2nc(C)nc(N[C@H](C)c3cc(N)cc(C(F)(F)F)c3)c2cc1[C@H]1CC[C@H](C(=O)N2CCC(COCC3CCN(C(=O)c4ccc(Cl)c(N5CCC(=O)NC5=O)c4)CC3)CC2)CC1` [Example 76, 1-(5-(4-(((1-((1R,4R)-4-(4-(((R)-1-(3-amino-5-(trifluoromethyl)phenyl)ethyl)amino)-7-methoxy-2-methylquinazolin-6-yl)cyclohexane-1-carbonyl)piperidin-4-yl)methoxy-d2)methyl)piperidine-1-carbonyl)-2-chlorophenyl)dihydropyrimidine-2,4(1H,3H)-dione]: under setting [1], the half-maximal degradation concentration (DC50) was < 50 nM.
